{
  "source": "patent US9497972B2",
  "about": "“Compositions comprising a biological control agent and an insecticide” (priority 2012, dated 2016)",
  "type_in_all_cases": "in vivo",
  "key": {"Phaedon cochleariae": {"tested_on": "Phaedon cochleariae", "test": "Phaedon cochleariae spray test, Example C: Chinese cabbage leaf-disks", "protocol": "(§1) For all examples efficiencies of the compositions comprising at least one BCA and at least one specific insecticide has been determined by the “Colby-formula”: The expected efficacy of a given combination of two compounds is calculated as follows (see Colby, S. R., “Calculating Synergistic and antagonistic Responses of Herbicide Combinations”, Weeds 15, pp. 20-22, 1967):\n(§2) If • X is the efficacy expressed in % mortality of the untreated control for test compound A at a concentration of m ppm respectively m g/ha, • Y is the efficacy expressed in % mortality of the untreated control for test compound B at a concentration of n ppm respectively n g/ha, • E is the efficacy expressed in % mortality of the untreated control using the mixture of A and B at m and n ppm respectively m and n g/ha, then is E=X+Y−(X×Y/100)\n(§3) If the observed insecticidal efficacy of the combination is higher than the one calculated as “E”, then the combination of the two compounds is more than additive, i.e., there is a synergistic effect.\nPhaedon cochleariae—Spray Test\n(§4) To produce a suitable preparation of active compound, 1 part by weight of active compound is mixed with the stated amount of solvent and emulsifier, and the concentrate is diluted with emulsifier-containing water to the desired concentration. To produce a suitable preparation of a spore suspension the spores are diluted with emulsifier-containing water to the desired concentration.\nChinese cabbage (Brassica pekinensis) leaf-disks are sprayed with a preparation of the active ingredient of the desired concentration. Once dry, the leaf disks are infested with mustard beetle larvae (Phaedon cochleariae).\nAfter the specified period of time, mortality in % is determined. 100% means all beetle larvae have been killed and 0% means none of the beetle larvae have been killed. The mortality values determined thus are recalculated using the Colby-formula (see above)."}, "Myzus persicae [1]": {"tested_on": "Myzus persicae", "test": "Myzus persicae spray test (MYZUPE), Example A: Chinese cabbage leaf-disks", "protocol": "as §1, §2, §3\nMyzus persicae—Spray Test (MYZUPE)\nas §4\nChinese cabbage (Brassica pekinensis) leaf-disks infected with all instars of the green peach aphid (Myzus persicae), are sprayed with a preparation of the active ingredient of the desired concentration.\nAfter the specified period of time, mortality in % is determined. 100% means all aphids have been killed; 0% means none of the aphids have been killed. The mortality values determined thus are recalculated using the Colby-formula (see above)."}, "Myzus persicae [2]": {"tested_on": "Myzus persicae", "test": "Myzus persicae spray test, Example E: cabbage leaves (Brassica oleracea)", "conditions": "1 ppm", "protocol": "as §1, §2, §3\nMyzus persicae—Spray Test […]\n(§5) After the specified period of time, mortality in % is determined. […] The mortality values determined thus are recalculated using the Colby-formula (see above)."}, "Spodoptera frugiperda": {"tested_on": "Spodoptera frugiperda", "test": "Spodoptera frugiperda spray test, Example D: maize leaf sections", "protocol": "as §1, §2, §3\nSpodoptera frugiperda—Spray Test\nas §4, with “preparation of the active compound,” for “preparation of active compound,”\nMaize (Zea mais) leaf sections are sprayed with a preparation of the active ingredient of the desired concentration. Once dry, the leaf sections are infested with fall armyworm larvae (Spodoptera frugiperda).\nAfter the specified period of time, mortality in % is determined. 100% means all caterpillars have been killed and 0% means none of the caterpillars have been killed. The mortality values determined thus are recalculated using the Colby-formula (see above)."}, "Tetranychus urticae": {"tested_on": "Tetranychus urticae", "test": "Tetranychus urticae spray test, OP-resistant, Example B: French beans", "protocol": "as §1, §2, §3\nTetranychus urticae—Spray Test, OP-Resistant […]\nas §5"}},
  "data": [
    {"compound": "CN/C(=N\\[N+](=O)[O-])NCc1cnc(Cl)s1", "note": "[Clothianidin (I142), Clothianidin]", "values": [
      {"measurement": "Efficacy in % after 2^d", "setting": "Phaedon cochleariae; 20 g ai/ha", "value": 0, "unit": "%"},
      {"measurement": "Efficacy in % after 1^d", "setting": "Myzus persicae [1]; 0.8 g/ha", "value": 70, "unit": "%"},
      {"measurement": "Efficacy in % after 6^d", "setting": "Myzus persicae [1]; 4 g/ha", "value": 70, "unit": "%"}
    ]},
    {"compound": "O=[N+]([O-])NC1=NCCN1Cc1ccc(Cl)nc1", "note": "[Imidacloprid (I144), Imidacloprid]", "values": [
      {"measurement": "Efficacy in % after 6^d", "setting": "Myzus persicae [1]; 0.032 g/ha", "value": 0, "unit": "%"},
      {"measurement": "Efficacy in % after 1^d", "setting": "Myzus persicae [1]; 0.16 g/ha", "value": 0, "unit": "%"},
      {"measurement": "Efficacy in % after 1^d", "setting": "Myzus persicae [1]; 0.4 g/ha", "value": 70, "unit": "%"}
    ]},
    {"compound": "CC(c1ccc(C(F)(F)F)nc1)S(C)(=O)=NC#N", "note": "(centres unmarked) [Sulfoxaflor (I149), Sulfoxaflor]", "values": [
      {"measurement": "Efficacy in % after 6^d", "setting": "Myzus persicae [1]; 0.08 g/ha", "value": 70, "unit": "%"},
      {"measurement": "Efficacy in % after 6^d", "setting": "Myzus persicae [1]; 0.4 g/ha", "value": 70, "unit": "%"}
    ]},
    {"compound": "N#C/N=C1\\SCCN1Cc1ccc(Cl)nc1", "note": "[Thiacloprid (I146), Thiacloprid]", "values": [
      {"measurement": "Efficacy in % after 1^d", "setting": "Myzus persicae [2]", "value": 35, "unit": "%"},
      {"measurement": "Efficacy in % after 6^d", "setting": "Myzus persicae [1]; 0.16 g/ha", "value": 0, "unit": "%"},
      {"measurement": "Efficacy in % after 6^d", "setting": "Myzus persicae [1]; 0.8 g/ha", "value": 70, "unit": "%"}
    ]},
    {"compound": "CN1COCN(Cc2cnc(Cl)s2)/C1=N\\[N+](=O)[O-]", "note": "[Thiamethoxam (I147), Thiamethoxam]", "values": [
      {"measurement": "Efficacy in % after 6^d", "setting": "Myzus persicae [1]; 0.16 g/ha", "value": 0, "unit": "%"},
      {"measurement": "Efficacy in % after 1^d", "setting": "Myzus persicae [1]; 0.4 g/ha", "value": 0, "unit": "%"},
      {"measurement": "Efficacy in % after 1^d", "setting": "Myzus persicae [1]; 2 g/ha", "value": 0, "unit": "%"}
    ]},
    {"compound": "Spinetoram [Spinetoram (I150)]", "values": [
      {"measurement": "Efficacy in % after 6^d", "setting": "Phaedon cochleariae; 0.16 g ai/ha", "value": 0, "unit": "%"},
      {"measurement": "Efficacy in % after 6^d", "setting": "Phaedon cochleariae; 0.8 g ai/ha", "value": 33, "unit": "%"},
      {"measurement": "Efficacy in % after 2^d", "setting": "Spodoptera frugiperda; 0.16 g ai/ha", "value": 67, "unit": "%"}
    ]},
    {"compound": "Spinosad [Spinosad (I151)]", "values": [
      {"measurement": "Efficacy in % after 6^d", "setting": "Phaedon cochleariae; 4 g ai/ha", "value": 0, "unit": "%"},
      {"measurement": "Efficacy in % after 6^d", "setting": "Tetranychus urticae; 4 g ai/ha", "value": 0, "unit": "%"},
      {"measurement": "Efficacy in % after 2^d", "setting": "Tetranychus urticae; 20 g ai/ha", "value": 50, "unit": "%"},
      {"measurement": "Efficacy in % after 6^d", "setting": "Spodoptera frugiperda; 0.16 g ai/ha", "value": 0, "unit": "%"},
      {"measurement": "Efficacy in % after 2^d", "setting": "Spodoptera frugiperda; 0.8 g ai/ha", "value": 0, "unit": "%"},
      {"measurement": "Efficacy in % after 6^d", "setting": "Myzus persicae [1]; 20 g/ha", "value": 0, "unit": "%"}
    ]}
  ]
}
